Test results from patent publication US8183252B2, “Heterocyclic aspartyl protease inhibitors” (Schering Corporation, priority 2007, dated 2012).

Each compound was assayed against T1, human BACE1 (sproBACE1) (Homo sapiens, UniProt P56817) (assay: BACE-1 Peptide Hydrolysis Assay (HTRF)). Details: not given.
T1 construct: sBACE1, corresponding to amino acids 1-454; made in house; host or cells: Sf9 insect cells (baculovirus), secreted into the medium
Type: biochemical
Text: A HindIII/PmeI fragment from pCDNA4-sBACE1myc/His was blunt ended using Klenow and subcloned into the Stu I site of PFASTBACI(A) (Invitrogen). A sBACE1mycHis recombinant bacmid was generated by transposition in DH10Bac cells (GIBCO/BRL). Subsequently, the sBACE1mycHis bacmid construct was transfected into sf9 cells using CellFectin (Invitrogen, San Diego, Calif.) in order to generate recombinant baculovirus. […] Five milliliters of high titer plaque purified sBACEmyc/His virus was used to infect 1 L of logarithmically growing sf9 cells for 72 hours. Intact cells were pelleted by centrifugation at 3000×g for 15 minutes. The supernatant, containing secreted sBACE1, was collected and diluted 50% v/v with 100 mM HEPES, pH 8.0. The diluted medium was loaded onto a Q-sepharose column. The Q-sepharose column was washed with Buffer A (20 mM HEPES, pH 8.0, 50 mM NaCl).
Proteins, were eluted from the Q-sepharose column with Buffer B (20 mM HEPES, pH 8.0, 500 mM NaCl). The protein peaks from the Q-sepharose column were pooled and loaded onto a Ni-NTA agarose column. The Ni-NTA column was then washed with Buffer C (20 mM HEPES, pH 8.0, 500 mM NaCl). Bound proteins were then eluted with Buffer D (Buffer C+250 mM imidazole).
Reactions were initiated by addition of substrate in a 5 μl aliquot resulting in a total volume of 25 μl. After 3 hr at 30° C. reactions were terminated by addition of an equal volume of 2× stop buffer containing 50 mM Tris-HCl pH 8.0, 0.5 M KF, 0.001% Brij-35, 20 μg/ml SA-XL665 (cross-linked allophycocyanin protein coupled to streptavidin; CIS-Bio International, France) (0.5 μg/well). Plates were shaken briefly and spun at 1200×g for 10 seconds to pellet all liquid to the bottom of the plate before the incubation.
Y=Bottom+(Top-Bottom)/(1+10^((LogEC50−X)*Hill Slope)); X is the logarithm of concentration of I, Y is the percent change in ratio and Y starts at bottom and goes to top with a sigmoid shape.

T1 sequence (P56817 22-454): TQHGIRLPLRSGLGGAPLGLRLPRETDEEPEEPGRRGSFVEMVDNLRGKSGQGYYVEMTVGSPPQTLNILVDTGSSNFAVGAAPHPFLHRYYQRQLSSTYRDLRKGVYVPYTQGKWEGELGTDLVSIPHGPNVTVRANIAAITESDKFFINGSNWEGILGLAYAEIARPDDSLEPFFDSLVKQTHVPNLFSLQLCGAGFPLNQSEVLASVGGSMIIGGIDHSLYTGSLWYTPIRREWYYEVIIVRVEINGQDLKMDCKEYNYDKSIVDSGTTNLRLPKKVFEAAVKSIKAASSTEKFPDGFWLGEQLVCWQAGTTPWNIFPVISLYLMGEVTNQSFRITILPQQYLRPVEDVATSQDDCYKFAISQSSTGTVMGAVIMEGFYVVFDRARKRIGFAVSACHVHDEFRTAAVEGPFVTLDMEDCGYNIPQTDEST

SMILES	Ki [µM]
CS(=O)(=O)N1CCCC(CCN2C(=N)NC(c3ccccc3)(c3ccccc3)C2=O)C1 (racemic)	< 5
CC(=O)N1CCC(CN2C(=N)NC(C)(c3cccc(-c4cn[nH]c4)c3)C2=O)CC1 (centres unmarked)	< 5

Same assay, conditions: read-out: BACE-1 Ki

Ki [µM]	SMILES
< 5	CCCC(=O)N1CCC[C@@H](CN2C(=N)NC(c3ccccc3)(c3ccccc3)C2=O)C1
< 5	CN1C(=N)N[C@](CCC2CCCCC2)(C[C@H]2CCC[C@@H](NS(=O)(=O)c3ccccc3)C2)C1=O
< 5	Cc1ccc(CN2C(=N)NC(c3ccccc3)(c3ccccc3)C2=O)cc1
< 5	CS(=O)(=O)Nc1cccc(CN2C(=N)NC(c3ccccc3)(c3ccccc3)C2=O)c1
< 5	N=C1NC(c2ccccc2)(c2ccccc2)C(=O)N1CC1CCN(c2ccc3ccccc3n2)CC1
< 5	CN1C(=N)NC(c2ccccc2)(c2cccc(-c3ccoc3)c2)C1=O (racemic) [5-[3-(3-FURANYL)PHENYL]-2-IMINO-3-METHYL-5-PHENYL-4-IMIDAZOLIDINONE (RACEMIC), 5-[3-(3-FURANYL)PHENYL]-2-IMINO-3-METHYL-5-PHENYL-4-IMIDAZOLIDINONE]
< 5	CC1(c2cccc(-c3cccc(Cl)c3)c2)NC(=N)N(CC2CCN(C(=O)c3ccccc3)C2)C1=O (centres unmarked)
< 5	CCS(=O)(=O)N1CCC(CN2C(=N)NC(c3ccccc3)(c3ccccc3)C2=O)CC1 [piperidine, 1-(ethylsulfonyl)-4-[(2-imino-5-oxo-4,4-diphenyl-1-imidazolidinyl)methyl]-]
< 5	N=C1NC(c2ccccc2)(c2ccccc2)C(=O)N1Cc1cccc(NC(=O)C2CCCC2)c1
< 5	CCS(=O)(=O)Nc1cccc(CN2C(=N)NC(c3ccccc3)(c3ccccc3)C2=O)c1
< 5	CN1C(=N)N[C@](CCc2ccccc2)(C[C@H]2CCC[C@H](Nc3cccnc3)C2)C1=O
< 5	CN1CCC(CN2C(=N)NC(C)(c3cccc(-c4cccc(Cl)c4)c3)C2=O)C1 (centres unmarked)
< 5	CCN(CC)CCCN1C(=N)NC(c2cccc(-c3cccc(Cl)c3)c2)(C2CC2)C1=O (centres unmarked) [4-imidazolidinone, 5-(3′-chloro[1,1′-biphenyl]-3-yl)-5-cyclopropyl-3-[3-(diethylamino)propyl]-2-imino-]
< 5	CN1C(=N)NC(C)(c2cccc(-c3cc(Cl)ccc3CNS(=O)(=O)c3ccccc3)c2)C1=O (centres unmarked) [benzenesulfonamide, N-[[5-chloro-3′-(2-imino-1,4-dimethyl-5-oxo-4-imidazolidinyl)[1,1′-biphenyl]-2-yl]methyl]-]
< 5	N=C1NC(c2ccccc2)(c2ccccc2)C(=O)N1CC1CCN(C(=O)Nc2cccc(Cl)c2)CC1
< 5	CCC(CO)N1C(=N)NC(c2cccc(-c3cccc(Cl)c3)c2)(C2CC2)C1=O (centres unmarked) [4-imidazolidinone, 5-(3′-chloro[1,1′-biphenyl]-3-yl)-5-cyclopropyl-3-[1-(hydroxymethyl)propyl]-2-imino-]
< 5	COc1cncc(-c2cccc(C3(C)NC(=N)N(CC4CC(=O)N(c5ccccc5)C4)C3=O)c2)c1 (centres unmarked)
< 5	CCCCS(=O)(=O)Nc1cccc(CN2C(=N)NC(c3ccccc3)(c3ccccc3)C2=O)c1

Continued, compound first:

SMILES	Ki [µM]
CN1C(=N)N[C@](C)(c2cc(-c3cccnc3F)cs2)[C@@H](C2CC2)C1=O	< 5
CN1C(=N)N[C@](CCC2CCCCC2)(C[C@H]2CCC[C@@H](NC(=O)Cc3ccc4ccccc4c3)C2)C1=O	< 5
CN1C(=N)N[C@](C)(c2csc(-c3ccc(F)c(C#N)c3)c2)CC1=O	< 5
N=C1NC(c2cccc(-c3cccc(Cl)c3)c2)(C2CC2)C(=O)N1CC(F)(F)F (centres unmarked) [4-imidazolidinone, 5-(3′-chloro[1,1′-biphenyl]-3-yl)-5-cyclopropyl-2-imino-3-(2,2,2-trifluoroethyl)-]	< 5
CN1C(=N)N[C@@](C[C@H]2CCC[C@@H](Nc3ccc4ccccc4n3)C2)(C2CC2)C1=O	< 5
CN1C(=N)N[C@](C)(c2cc(-c3cccc(C#N)c3)c(C3=CCN(c4ccccc4)CC3)s2)CC1=O	< 5
CN1C(=N)NC(C)(c2cccc(-c3cc(Cl)ccc3CNC(=O)c3cccnc3)c2)C1=O (centres unmarked)	< 5
CC(C)[C@H](CO)N1C(=N)NC(c2cccc(-c3cccc(Cl)c3)c2)(C2CC2)C1=O (stereo partly drawn) [4-imidazolidinone, 5-(3′-chloro[1,1′-biphenyl]-3-yl)-5-cyclopropyl-3-[(1R)-1-(hydroxymethyl)-2-methylpropyl]-2-imino-]	< 5
CN1C(=N)N[C@](C)(c2cc(-c3cncc(C#N)c3)cs2)[C@H](C2CCC2)C1=O	< 5
C[C@H]1C(=O)N(C)C(=N)N[C@]1(C)c1cc(-c2cc(C#N)cc(C#N)c2)cs1	< 5
CCc1cccc(-c2cc([C@]3(C)CC(=O)N(C)C(=N)N3)nn2C)c1	< 5
COc1ccc([C@H]2C(=O)N(C)C(=N)N[C@]2(C)c2cncs2)cc1	< 5
C[C@H]1C(=O)N(C)C(=N)N[C@]1(C)c1cc(-c2ccc(F)c(C#N)c2)cs1	< 5
CN1C(=N)N[C@](C)(c2cccc(-c3cccnc3F)c2)CC1=O	< 5
CN1C(=N)N[C@](C)(c2c(F)cccc2F)[C@@H](c2ccc(C(F)(F)F)cc2)C1=O	< 5
CN1OCC(C)(c2cccc(-c3cccc(Cl)c3)c2)NC1=N (centres unmarked)	< 5
CN1C(=N)NC(c2cc(-c3cccc(CO)c3)cs2)(C2CC2)C1=O (centres unmarked)	< 5
CN1C(=N)NC(C)(c2cc(-c3cccc(C#N)c3)cs2)C(CC=Cc2cccc(F)c2)C1=O (centres unmarked)	< 5

SMILES	Ki [µM]
CN1C(=N)N[C@](C)(c2ccc(F)cc2F)[C@@H](c2ccc(N3CCCS3(=O)=O)cc2)C1=O	< 5
CN1C(=N)N[C@](C)(c2ccc(C#N)s2)[C@@H](c2ccc(C(C)(F)F)cc2)C1=O	< 5
CC(C)N1C(=N)NC(c2cccc(-c3cccc(Cl)c3)c2)(C2CC2)C1=O (centres unmarked) [4-imidazolidinone, 5-(3′-chloro[1,1′-biphenyl]-3-yl)-5-cyclopropyl-2-imino-3-(1-methylethyl)-]	< 5
COCCN1C(=N)N[C@](C)(c2ccc3sccc3c2)CC1=O	< 5
COc1cc(C#N)cc(-c2csc([C@]3(C)CC(=O)N(C)C(=N)N3)c2)c1	< 5
CN1C(=N)N[C@](CCC2CCCCC2)(C[C@H]2CCC[C@@H](NC(=O)c3cc(Cl)nc(Cl)c3)C2)C1=O	< 5
CN1C(=N)N[C@](C)(c2ccnc(-c3cccnc3F)c2)[C@@H](c2ccc(C3CC3)cc2)C1=O	< 5
CN1C(=N)N[C@](C)(c2ccc3c(ccn3C)c2)CC1=O	< 5
Cc1c(-c2cccc(OC(F)(F)F)c2)csc1[C@]1(C)CC(=O)N(C)C(=N)N1	< 5
CC(C)n1cc([C@H]2C(=O)N(C)C(=N)N[C@]2(C)c2cc(-c3cccc(C#N)c3)cs2)cn1	< 5
CN1C(=N)NC(C)(c2cc(-c3cccc(C#N)c3)cs2)C(CCCc2ccccc2)(n2cccn2)C1=O (centres unmarked)	< 5
CN1C(=N)NC(C)(c2cccc(-c3cncc(C#N)c3)c2)C1=O (racemic)	< 5
CCc1cccc(-n2cc([C@]3(C)CC(=O)N(C)C(=N)N3)cn2)c1	< 5
CN1C(=N)N[C@](C)(c2cc(-c3cc(Cl)cc(C#N)c3)cs2)CC1=O	< 5
C[C@H]1C(=O)N(C)C(=N)N[C@]1(C)c1cc(-c2cc(Cl)cc(C#N)c2)cs1	< 5
CN1C(=N)N[C@@](CCC2CCCCC2)(C[C@H]2CCC[C@@H](Nc3cnc4cc(Cl)ccc4n3)C2)C1=O	< 5
Cc1cccc(-c2cccc(C3(C4CC4)NC(=N)N(C)C3=O)c2)n1 (centres unmarked)	< 5
CN1C(=N)N[C@](C)(c2cc(-c3cc(C#N)ccc3Cl)c3sccc3c2)CC1=O	< 5
